# Measurements taken from PMC10518717, “High-Throughput Screening and Proteomic Characterization of Compounds Targeting Myeloid-Derived Suppressor Cells” (Molecular & Cellular Proteomics : MCP, 2023).
# Key:
# A594 cells = assay: CellROX-based detection of ROS levels; type: cell-based; conditions: 48 h treatment (compound 2 7.8 μM, N-acetyl-cysteine 300 μM), then 200 μM tert-butyl hydroperoxide 2 h; compared to compound 3 10 μM
# Procedure: A594 cells were maintained in Fluorobrite DMEM (Thermo Fisher Scientific) supplemented with GlutaMAX (Thermo Fisher Scientific) and 10% fetal bovine serum (PAN Biotech). Cells were seeded onto a 24-well microplate (Ibidi) and treated with DMSO, 7.8 μM compound 2 (3x EC50), 10 μM compound 3, or 300 μM N-acetyl-cysteine for 48 h. After the treatment, cells were incubated with 200 μM tert-butyl hydroperoxide (Sigma) for 2 h to stimulate ROS production. Then, cells were stained with CellROX deep red (Thermo Fisher Scientific) following the manufacturer’s guidelines. CellROX deep red signal was measured on a Leica DMI 6000 B epifluorescent microscope with a Cy5 filter set. Mean signal intensity per cell was determined from >100 cells per condition from three independent treatments.
# For the CellROX assay, three independent treatments were conducted. From each, the mean signal intensity per cell was determined for >100 cells per condition. The statistical significance was calculated by one-way ANOVA followed by a post hoc Tukey’s multiple comparisons test using GraphPad Prism (v.8.3.0).
# Arginase = target: T1, Arginase (Mus musculus, UniProt Q61176); assay: Arginase activity assay (Arginase Activity Assay Kit) in cell lysates; type: biochemical; conditions: NUP-MDSC lysates; titrated amounts of inhibitor
# T1 construct: endogenous in cells; host or cells: mouse NUP cells / NUP-MDSC (lysate)
# T1 sequence (Q61176 1-323): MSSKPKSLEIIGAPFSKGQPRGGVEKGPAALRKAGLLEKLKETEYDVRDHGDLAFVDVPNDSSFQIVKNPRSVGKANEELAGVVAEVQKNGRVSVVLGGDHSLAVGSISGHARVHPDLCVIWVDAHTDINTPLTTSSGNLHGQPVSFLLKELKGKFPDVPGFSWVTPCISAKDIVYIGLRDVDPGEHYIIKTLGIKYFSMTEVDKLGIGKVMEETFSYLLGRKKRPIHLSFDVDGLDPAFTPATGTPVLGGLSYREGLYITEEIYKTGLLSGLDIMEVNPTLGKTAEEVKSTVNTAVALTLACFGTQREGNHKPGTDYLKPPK
# Procedure: Arginase catalyzes the conversion of arginine to urea and ornithine. The urea produced specifically reacts with the assay substrate to generate a colored product, proportional to the arginase activity. Cells were washed with PBS and lysed for 10 min in 10 mM Tris–HCl, pH7.4 containing protease inhibitors and 0.4% (w/v) Triton X-100. Lysates were centrifuged at 13,000g for 10 min, and supernatant was used for analysis. Arginase activity was analyzed using the Arginase Activity Assay Kit (Sigma, MAK112) according to manufacturer’s protocol. Lysates were untreated or treated with titrated amounts of the arginase inhibitor (3R,4S)-3-amino-1-[(2S)-2-aminopropanoyl]-4-(3-boronopropyl)pyrrolidine-3-carboxylic acid. Absorbance (430 nm) was analyzed in an Infinite M1000 Pro (Tecan) plate reader after 120 min of incubation. Arginase activity was determined as follows: arginase activity = absorbance-blank/(urea standard-H2O Control)∗(1 mM∗reaction volume ∗10³/(incubation time in min∗sample volume (μL))). One unit of arginase is the amount of enzyme that will convert 1.0 μmole of L-arginine to ornithine and urea per minute at pH 9.5 and 37 °C.
# NUP-MDSC cell lysate [1] = target: T2, NUP-MDSC cell lysate (Mus musculus, UniProt Q8WUR0); assay: Chemoproteomic competition pulldown assay (iCor/iEnt affinity matrix), proteome-wide; type: binding; conditions: protein 1600014C10Rik (Protein C19orf12 homolog)
# T2 construct: endogenous in cells; host or cells: mouse NUP-MDSC (lysate)
# T2 sequence (Q8WUR0 1-141): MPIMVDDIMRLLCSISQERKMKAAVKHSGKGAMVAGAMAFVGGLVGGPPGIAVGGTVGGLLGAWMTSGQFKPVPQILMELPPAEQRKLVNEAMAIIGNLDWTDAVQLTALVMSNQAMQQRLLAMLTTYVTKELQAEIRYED
# Excerpt: (§1) Targets of the inhibitors were annotated manually.
# NUP-MDSC cell lysate [2] = target: T3, NUP-MDSC cell lysate (Mus musculus, UniProt G5E8Z3); assay: as above; type: binding; conditions: protein 2310050C09Rik (G5E8Z3)
# T3 construct: endogenous in cells; host or cells: mouse NUP-MDSC (lysate)
# Excerpt: as §1
# NUP-MDSC = assay: Global proteome expression profiling of compound-treated NUP-MDSC (TMT LC-MS/MS); type: cell-based, mouse; conditions: 72 h; for log2 FC Moce_300/DMSO: 300 nM
# Procedure: After treatments, medium was removed, cells were washed twice with PBS, and the cell pellets were further subjected to proteomic sample preparation.
# The cell pellet was reconstituted in 2% SDS in 50 mM Tris–HCl pH 7.5 and lysed by heating to 95 °C for 10 min. One microliter of 100% TFA was added to each sample to hydrolyze DNA, and the pH was subsequently adjusted to 8.5 with 3 M Tris solution. Disulfide bonds were reduced with 10 mM DTT for 45 min at 37 °C, followed by alkylation of cysteines with 55 mM CAA for 30 min at room temperature. Prior to tryptic digestion, the detergent was removed from lysates by SP3 cleanup on an Agilent BRAVO system (Agilent Technologies), following the protocol first described by Hughes et al. ([34]). Briefly, lysate containing 200 μg of protein was mixed with SP3 beads, and proteins were precipitated onto a 50:50 mixture of Sera-Mag Speed Bead types A and B (Thermo Fisher Scientific) in 58% acetonitrile. Beads were washed three times with 80% ethanol in water and once with acetonitrile. Tryptic digest was performed in 100 μl of digestion buffer (2 mM CaCl2 in 25 mM Hepes, pH 8.5) with a 1:50 enzyme-to-protein ratio. Bead-precipitated proteins were digested at 37 °C overnight. On the next day, the supernatant of each sample was transferred to a new well and vacuum dried.
# Dried peptides were reconstituted in water and labeled with the respective TMT10plex-labeling reagent as described previously ([35]) with a protein to tandem mass tag (TMT) reagent ratio of 1:2. Labeled samples were pooled, vacuum dried, and reconstituted in 0.1% formic acid (FA) prior to desalting on SepPAC50 columns (waters corp.). Peptides were fractionated using a Dionex Ultra 3000 HPLC system with a Waters XBridge BEH130 C18 3.5 um 2.1 × 250 mm column as described previously ([36]). Ninety-six fractions were collected and pooled to 48. For the full proteome analysis, one fifth of each fraction was transferred to a new 96-well plate and both plates were vacuum dried. For the phosphopeptide analysis, dried peptides were reconstituted in 55 μl 0.1% TFA in 30% ACN, pooled from 48 to 12 fractions, and mixed with 70 μl priming buffer (0.1% TFA, 100% ACN). Phosphopeptides were enriched from each of the 12 fractions using Fe(III)-IMAC-NTA cartridges on the AssayMAP BRAVO (Agilent Technologies) platform as described previously ([36]). Phosphopeptides were eluted with 60 μl 1% ammonia, vacuum dried, and stored at −20 °C prior to LC-MS/MS analysis.
# The Fusion Lumos was operated in data-dependent acquisition and positive ionization mode. Samples were measured employing a MS3 method. In brief, full scan MS1 spectra were recorded in the orbitrap (OT) from 360 to 1560 m/z at 60,000 resolution using an automatic gain control (AGC) target value of 4e5 charges and a maximum injection time (maxIT) of 50 ms. Iontrap-MS2 spectra for peptide identification were acquired using higher energy collision dissociation (HCD) fragmentation with 32% normalized collision energy (NCE), an isolation window of 0.6 m/z, and an AGC target value of 1.2e4 charges. To obtain quantitative information on TMT reporter ions, each peptide precursor was fragmented again as for MS2 analysis followed by synchronous selection of the up to eight most intense peptide fragments in the iontrap ([37]) and further fragmentation via HCD using a NCE of 55%. The MS3 scan was recorded in the OT at 50,000 resolution (scan range 100–1000 m/z, isolation window of 1.2 m/z, AGC of 1e5 charges, maxIT of 86 ms). The cycle time was 1.2 s, and the dynamic exclusion lasted for 50 s.
# Peptide, protein, and phosphorylation site identification and quantification were performed with MaxQuant software (v. 1.6.3.3, https://www.maxquant.org/) with standard settings for reporter ion MS3 unless described otherwise ([39]). Isotope impurities of the TMT lot were specified to allow MaxQuant the automated correction of TMT intensities. […]
# T3 sequence (G5E8Z3 1-280): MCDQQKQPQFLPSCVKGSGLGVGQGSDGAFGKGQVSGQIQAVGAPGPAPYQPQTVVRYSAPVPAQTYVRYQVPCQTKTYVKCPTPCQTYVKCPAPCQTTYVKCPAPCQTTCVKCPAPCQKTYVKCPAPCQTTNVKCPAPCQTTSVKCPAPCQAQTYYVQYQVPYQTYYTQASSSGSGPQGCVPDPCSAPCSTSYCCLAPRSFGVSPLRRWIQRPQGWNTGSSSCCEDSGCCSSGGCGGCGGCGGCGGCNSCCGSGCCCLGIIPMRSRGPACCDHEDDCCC
smiles,measurement,setting,value
CC(=O)N[C@@H](CS)C(=O)O [N-acetyl-cysteine],CellROX Deep Red fluorescence (amount of ROS in a cell),A594 cells,decreased significantly
"C[C@H](N)C(=O)N1C[C@H](CCCB(O)O)[C@](N)(C(=O)O)C1 [arginase inhibitor, (3R,4S)-3-amino-1-[(2S)-2-aminopropanoyl]-4-(3-boronopropyl)pyrrolidine-3-carboxylic acid]",arginase activity,Arginase,dose dependently decreased
Nc1ccccc1NC(=O)c1ccc(CNc2nccc(-c3cccnc3)n2)cc1 [mocetinostat],Intensity 10nM,NUP-MDSC cell lysate [1]; Mocetinostat 10nM,53804000
same,LFQ intensity 10nM,NUP-MDSC cell lysate [1]; Mocetinostat 10nM,30216000
same,Intensity 30nM,NUP-MDSC cell lysate [1]; Mocetinostat 30nM,64537000
same,LFQ intensity 30nM,NUP-MDSC cell lysate [1]; Mocetinostat 30nM,37744000
same,Intensity 100nM,NUP-MDSC cell lysate [1]; Mocetinostat 100nM,59266000
same,LFQ intensity 100nM,NUP-MDSC cell lysate [1]; Mocetinostat 100nM,38158000
same,Intensity 300nM,NUP-MDSC cell lysate [1]; Mocetinostat 300nM,53823000
same,LFQ intensity 300nM,NUP-MDSC cell lysate [1]; Mocetinostat 300nM,43828000
same,Intensity 1000nM,NUP-MDSC cell lysate [1]; Mocetinostat 1000nM,51502000
same,LFQ intensity 1000nM,NUP-MDSC cell lysate [1]; Mocetinostat 1000nM,40150000
same,Intensity 3000nM,NUP-MDSC cell lysate [1]; Mocetinostat 3000nM,76226000
same,LFQ intensity 3000nM,NUP-MDSC cell lysate [1]; Mocetinostat 3000nM,38853000
same,Intensity 30000nM,NUP-MDSC cell lysate [1]; Mocetinostat 30000nM,39641000
same,LFQ intensity 30000nM,NUP-MDSC cell lysate [1]; Mocetinostat 30000nM,39494000
same,Intensity 10nM,NUP-MDSC cell lysate [2]; Mocetinostat 10nM,25441000
same,LFQ intensity 10nM,NUP-MDSC cell lysate [2]; Mocetinostat 10nM,9384100
same,Intensity 30nM,NUP-MDSC cell lysate [2]; Mocetinostat 30nM,13403000
same,LFQ intensity 30nM,NUP-MDSC cell lysate [2]; Mocetinostat 30nM,6282200
same,Intensity 100nM,NUP-MDSC cell lysate [2]; Mocetinostat 100nM,19942000
same,LFQ intensity 100nM,NUP-MDSC cell lysate [2]; Mocetinostat 100nM,8726600
same,Intensity 300nM,NUP-MDSC cell lysate [2]; Mocetinostat 300nM,13729000
same,LFQ intensity 300nM,NUP-MDSC cell lysate [2]; Mocetinostat 300nM,7913100
same,Intensity 1000nM,NUP-MDSC cell lysate [2]; Mocetinostat 1000nM,4275900
same,LFQ intensity 1000nM,NUP-MDSC cell lysate [2]; Mocetinostat 1000nM,0
same,Intensity 3000nM,NUP-MDSC cell lysate [2]; Mocetinostat 3000nM,53551000
same,LFQ intensity 3000nM,NUP-MDSC cell lysate [2]; Mocetinostat 3000nM,32269000
same,Intensity 30000nM,NUP-MDSC cell lysate [2]; Mocetinostat 30000nM,25441000
same,LFQ intensity 30000nM,NUP-MDSC cell lysate [2]; Mocetinostat 30000nM,13756000
same,"protein expression of Il1a, Il1b, and Il1rn",NUP-MDSC; 30 and 300 nM,dose-dependently upregulated
same,"protein level of Cxcr3, Ccl9, and Ccr5","NUP-MDSC; 30 and 300 nM, dose-dependent manner",increased
same,log2 FC Moce_300/DMSO,NUP-MDSC; protein Cask,-0.508
same,log2 FC Moce_300/DMSO,NUP-MDSC; protein Hsf1,-0.2561
same,log2 FC Moce_300/DMSO,NUP-MDSC; protein Inpp5j,0.2433
same,log2 FC Moce_300/DMSO,NUP-MDSC; protein Magohb;Magoh,-0.03048
